Experiment: xn = mol fraction of the nth substance listed
Conditions: 92 kPa, Liquid; for mass density: Vibrating tube method

CC(C)(N)CO [2-amino-2-methylpropan-1-ol] + O
Conditions | mass density [kg/m3] | viscosity [mPa·s]
298.15 K, x1 = 0.0503 | 996.94 | 2.32
298.15 K, x1 = 0.0704 | 997.22 | 3.23
298.15 K, x1 = 0.1005 | 997.05 | 5.01
298.15 K, x1 = 0.2006 | 989.06 | 14.82
298.15 K, x1 = 0.2939 | 978.77 | 22.7
298.15 K, x1 = 0.4075 | 967.43 | 51.5
298.15 K, x1 = 0.4982 | 959.61 | 76.8
298.15 K, x1 = 0.5996 | 952.01 | 102.5
298.15 K, x1 = 0.7028 | 945.34 | 124.3
298.15 K, x1 = 0.8016 | 939.53 | 140.7
298.15 K, x1 = 0.9001 | 934.8 | 149.1
303.15 K, x1 = 0.0503 | 994.7 | 1.98
303.15 K, x1 = 0.0704 | 994.6 | 2.67
303.15 K, x1 = 0.1005 | 993.88 | 4.05
303.15 K, x1 = 0.2006 | 985.15 | 11.32
303.15 K, x1 = 0.2939 | 974.76 | 16.96
303.15 K, x1 = 0.4075 | 963.43 | 36.9
303.15 K, x1 = 0.4982 | 955.61 | 54.3
303.15 K, x1 = 0.5996 | 948 | 70.3
303.15 K, x1 = 0.7028 | 941.38 | 84
303.15 K, x1 = 0.8016 | 935.53 | 94
303.15 K, x1 = 0.9001 | 930.7 | 98.9
313.15 K, x1 = 0.0503 | 989.66 | 1.608
313.15 K, x1 = 0.0704 | 988.95 | 1.931
313.15 K, x1 = 0.1005 | 987.5 | 2.79
313.15 K, x1 = 0.2006 | 977.24 | 7
313.15 K, x1 = 0.2939 | 966.67 | 12.51
313.15 K, x1 = 0.4075 | 955.29 | 20.37
313.15 K, x1 = 0.4982 | 947.43 | 28.7
313.15 K, x1 = 0.5996 | 939.82 | 36.1
313.15 K, x1 = 0.7028 | 933.1 | 42.5
313.15 K, x1 = 0.8016 | 927.27 | 46.2
313.15 K, x1 = 0.9001 | 923.35 | 47.9
313.15 K, x1 = 1 | 919.65 | 47.8
323.15 K, x1 = 0.0503 | 984.18 | 1.244
323.15 K, x1 = 0.0704 | 982.83 | 1.466
323.15 K, x1 = 0.1005 | 980.6 | 2.03
323.15 K, x1 = 0.2006 | 969.17 | 4.66
323.15 K, x1 = 0.2939 | 958.38 | 7.85
323.15 K, x1 = 0.4075 | 946.98 | 12.17
323.15 K, x1 = 0.4982 | 939.08 | 16.26
323.15 K, x1 = 0.5996 | 931.58 | 20
323.15 K, x1 = 0.7028 | 924.7 | 22.7
323.15 K, x1 = 0.8016 | 918.85 | 24.6
323.15 K, x1 = 0.9001 | 914.78 | 25.3
323.15 K, x1 = 1 | 911.24 | 25.1
333.15 K, x1 = 0.0503 | 978.15 | 0.931
333.15 K, x1 = 0.0704 | 976.26 | 1.154
333.15 K, x1 = 0.1005 | 973.43 | 1.55
333.15 K, x1 = 0.2006 | 960.92 | 3.27
333.15 K, x1 = 0.2939 | 949.92 | 5.23
333.15 K, x1 = 0.4075 | 938.48 | 7.63
333.15 K, x1 = 0.4982 | 930.56 | 10
333.15 K, x1 = 0.5996 | 923.08 | 11.97
333.15 K, x1 = 0.7028 | 915.97 | 13.33
333.15 K, x1 = 0.8016 | 910.36 | 14.22
333.15 K, x1 = 0.9001 | 906.31 | 14.53
333.15 K, x1 = 1 | 902.87 | 14.4
343.15 K, x1 = 0.0503 | 971.66 | 0.826
343.15 K, x1 = 0.0704 | 969.29 | 0.933
343.15 K, x1 = 0.1005 | 965.83 | 1.21
343.15 K, x1 = 0.2006 | 952.44 | 2.4
343.15 K, x1 = 0.2939 | 941.28 | 3.67
343.15 K, x1 = 0.4075 | 930 | 4.94
343.15 K, x1 = 0.4982 | 921.85 | 6.43
343.15 K, x1 = 0.5996 | 914.39 | 7.5
343.15 K, x1 = 0.7028 | 907 | 8.23
343.15 K, x1 = 0.8016 | 901.65 | 8.88
343.15 K, x1 = 0.9001 | 897.77 | 8.98
343.15 K, x1 = 1 | 894.28 | 8.91

From the NIST ThermoML archive (doi:10.1021/je0201119)
